Key:
Phakopsora pachyrhizi = assay: Example U: in vivo preventive test on Phakopsora test (soybeans), comparison vs. known compounds; settings: rate of application 5 ppm, evaluated 7 days after inoculation
Method: Example U: In Vivo Preventive Test on Phakopsora Test (Soybeans); Comparison of Compounds According to the Invention Vs. Known Compounds
After the spray coating has dried on, the plants are inoculated with an aqueous spore suspension of the causal agent of soybean rust (Phakopsora pachyrhizi) and stay for 24 h without light in an incubation cabinet at approximately 24° C. and a relative atmospheric humidity of 95%.
The plants remain in the incubation cabinet at approximately 24° C. and a relative atmospheric humidity of approximately 80% and a day/night interval of 12 h.
The test is evaluated 7 days after the inoculation.

Venturia inaequalis = assay: Example T: in vivo preventive test on Venturia test (apples), comparison vs. known compounds; settings: rate of application 10 ppm, evaluated 10 days after inoculation
Method: Example T: In Vivo Preventive Test on Venturia Test (Apples) Comparison of Compounds According to the Invention Vs. Known Compounds
The plants are then placed in a greenhouse at approximately 21° C. and a relative atmospheric humidity of approximately 90%.
The test is evaluated 10 days after the inoculation.

[1] = LogP by HPLC on reversed phase columns (EEC directive 79/831 Annex V.A8); format: physicochemical; settings: LogP
Method: [table] If more than one Log P value is available within the same method, all the values are given and separated by “+”. […] Lambda-max-values were determined using UV-spectra from 200 nm to 400 nm and the peak values of the chromatographic signals.

| SMILES | Efficacy in % (Phakopsora pachyrhizi) [%] | Efficacy in % (Venturia inaequalis) [%] | chromatographic logP [1] |
| --- | --- | --- | --- |
| OC(Cn1cncn1)(c1ccc(F)cc1)C1(Oc2ccc(Cl)cc2Cl)CC1 (stereo not shown) [DE-A 3522440 Ex. I-44, reference compound] | 15 | 0 | – |
| OC(Cn1cncn1)(c1ccc(F)cc1F)C1(Oc2c(F)cc(Br)cc2F)CC1 (racemic) [Example I-03] | 89 | 93 | 3.7 |
| OC(Cn1cncn1)(c1ccc(F)cc1F)C1(Oc2c(F)cc(Cl)cc2F)CC1 (racemic) [Example I-01] | 95 | 98 | 3.57 |
| OC(Cn1cncn1)(c1ccc(F)cc1F)C1(Oc2ccccc2)CC1 (stereo not shown) [DE-A 3522440 Ex. I-134, reference compound] | 0 | 76 | – |

— patent publication US20180057467A1, “NOVEL TRIAZOLE DERIVATIVES” (BAYER CROPSCIENCE AKTIENGESELLSCHAFT, priority 2015, published 2018)
